According to paper PMC7397269, “Synthesis and Evaluation of New Coumarin Derivatives as Antioxidant, Antimicrobial, and Anti-Inflammatory Agents” (Molecules, 2020):
Converted amounts (≈) assume the structure as drawn.

Columns and labels:
[1] = tested on: Saccharomyces cerevisiae local isolate; experiment: Agar well diffusion, S. cerevisiae; format: cell-based; details: well diffusion, 100 μL of 10 mg/mL in DMSO, S. cerevisiae, read-out: diameter of inhibition zone, SC
From the text: (§1) The new molecules were individually tested for their antimicrobial activity in vitro against standard bacteria strains from the American Type Culture Collection (ATCC), namely, Staphylococcus aureus ATCC 29213, Bacillus subtilis ATCC 6633, Bacillus megaterium ATCC 9885 (Gram-positive), Escherichia coli ATCC 2592, and Pseudomonas aeruginosa ATCC 27,953 (Gram-negative). The compounds were also microbiologically tested against locally isolated Saccharomyces cerevisiae (yeast) and the standard Agricultural Research Service Culture Collection (NRRL) strain of the yeast-like pathogenic fungus Candida albicans NRRL Y-477. Primary screening was conducted using the agar well diffusion method using nutrient agar (NA) medium and Sabourand dextrose agar (SDA) medium for the tested pathological bacteria and yeast, respectively. […].
(§2) Antimicrobial tests were conducted via the agar well diffusion method using 100 μL of suspension containing 1 × 10^8 CFU/mL pathological tested bacteria and 1 × 10^6 CFU/mL yeast spread on NA and SDA, respectively. After the media cooled and solidified, wells (10 mm in diameter) were made in the solidified agar and loaded with 100 μL of the tested compound solution prepared by dissolving 10 mg of the chemical compound in 1 mL dimethyl sulfoxide (DMSO). The inoculated plates were then incubated for 24 h at 37 °C for bacteria and yeast growth. DMSO served as negative control. Ciprofloxacin (10 mg/mL) and ketoconazole (10 mg/mL) were used as standards for antibacterial and antifungal activity, respectively. After incubation, antimicrobial activity was evaluated by measuring the zone of inhibition against the test organisms and compared with that of the standard. Antimicrobial activities were expressed as the diameter of the inhibition zone (IZ) in mm. The experiment was carried out in triplicate and the average zone of inhibition was calculated.

[2] = tested on: Candida albicans NRRL Y-477; experiment: MIC, two-fold serial dilution, C. albicans; format: cell-based; details: NRRLY477, read-out: Minimum inhibitory concentration, CA
From the text: as §1
(§3) The bacteriostatic activity of the active compounds (having IZ > 16 mm) was then evaluated using the two-fold serial dilution technique. Two-fold serial dilutions of the tested compounds solutions were prepared using the proper nutrient broth to reach final concentrations of 1000, 500, 250, and 125 μg/mL. The tubes were then inoculated with the test microorganisms grown in their suitable broth at 37 °C for 24 h (1 × 10^8 CFU/mL for bacteria and 1 × 10^6 CFU/mL of yeast), 0.1 mL of the above inoculum was administered per 5 mL, and the tubes were incubated at 37 °C for 24 h. The lowest concentration showing no growth was taken as the MIC.

[3] = tested on: Bacillus megaterium ATCC 9885; experiment: MIC, two-fold serial dilution, B. megaterium; format: cell-based; details: Priestia megaterium, ATCC9885, read-out: Minimum inhibitory concentration, BM
From the text: as §1, §3

[4] = tested on: Candida albicans NRRL Y-477; experiment: Agar well diffusion, C. albicans; format: cell-based; details: NRRLY477, 100 μL of 10 mg/mL in DMSO, read-out: diameter of inhibition zone, CA
From the text: as §1, §2

[5] = DPPH antioxidant assay (radical scavenging); format: biochemical; details: mean ± SD (n = 3)
Method: The antioxidant effects of the synthesised compounds were assessed using the 2,2-diphenyl-1-picrylhydrazyl (DPPH) antioxidant assay. Table 1 summarises the antioxidant effects of the test samples and ascorbic acid except for compound 5b because it was produced in poor yield.
The radical scavenging activity of the synthesised compounds was measured using the DPPH microplate-based method. The absorbance was measured using a microplate/cuvette reader (Spectramax M5, Molecular Devices, San Jose, CA, USA). Reference standard ascorbic acid was utilised as the positive control for this assay. Test samples were prepared at a starting concentration of 200 μg/mL after mixing with 100 μL of 0.2 mM DPPH methanolic solution. […] Samples were incubated with DPPH in the dark for 30 min at room temperature (25 °C). The methanolic DPPH solution was prepared daily and stored in a flask covered with aluminium foil. DPPH radicals have an absorption maximum (λmax) at 515 nm, at which the absorbance values were measured and converted into a percentage of antioxidant activity.
The methanolic DPPH solution without antioxidants was used as a control, and samples in methanol alone served as a background control. IC50 was determined using GraphPad Prism 7 (GraphPad Software Inc., San Diego, CA, USA). The percent inhibition was calculated using the following Equation (1):(1) % Inhibition=100−Sample Absorbance −Sample background Absorbance/DPPH only Absorbance×100
The assay was carried out in triplicate and performed as much as possible in an area protected against light. The data points are presented as the mean ± standard deviation (SD, n = 3).

[6] = tested on: Pseudomonas aeruginosa ATCC 27,953; experiment: MIC, two-fold serial dilution, P. aeruginosa; format: cell-based; details: ATCC27, read-out: Minimum inhibitory concentration, PA
From the text: as §1, §3

trypsin = experiment: Proteinase-inhibitory activity; format: biochemical; details: 250 µg/mL; mean ± SD (n = 3)
Method: The newly synthesised compounds were individually tested for their in vitro anti-inflammatory activity against proteinase enzyme. […] This test was performed at the Pharmacology Department, Medical Research Division, National Research Centre, Cairo, Egypt. Furthermore, compounds 2–8 were evaluated for their COX1/COX2 inhibitory activities.
The test was performed according to El-Serwy et al. with minor modifications. The reaction mixture (2 mL) contained 0.06 mg trypsin, 20 mM Tris HCl buffer (pH 7.4), and 1 mL test sample (250 µg/mL for each compound). After incubating for 5 min, 1 mL of 0.8% (w/v) casein was added. The mixture was incubated for an additional 20 min. The reaction was arrested by adding 1 mL of 10% perchloric acid. The cloudy suspension was centrifuged, and the absorbance of the supernatant was read at 280 nm. Reference standard aspirin was used as the positive control. The experiment was performed in triplicate. The percent inhibition of protein denaturation was calculated using the following Equation (2):(2) % Inhibition=100−A control −A test/A control×100 where Acontrol and Atest represent the absorbance of the control reaction without and with the sample, respectively.

[7] = tested on: Escherichia coli ATCC 2592; experiment: MIC, two-fold serial dilution, E. coli; format: cell-based; details: ATCC2592, read-out: Minimum inhibitory concentration, EC
From the text: as §1, §3

[8] = tested on: Staphylococcus aureus ATCC 29213; experiment: Agar well diffusion, S. aureus; format: cell-based; details: ATCC29213, 100 μL of 10 mg/mL in DMSO, read-out: diameter of inhibition zone, SA
From the text: as §1, §2

[9] = tested on: Bacillus megaterium ATCC 9885; experiment: Agar well diffusion, B. megaterium; format: cell-based; details: Priestia megaterium, ATCC9885, 100 μL of 10 mg/mL in DMSO, read-out: diameter of inhibition zone, BM
From the text: as §1, §2

[10] = tested on: Pseudomonas aeruginosa ATCC 27,953; experiment: Agar well diffusion, P. aeruginosa; format: cell-based; details: ATCC27, 100 μL of 10 mg/mL in DMSO, read-out: diameter of inhibition zone, PA
From the text: as §1, §2

[11] = tested on: Bacillus subtilis ATCC 6633; experiment: MIC, two-fold serial dilution, B. subtilis; format: cell-based; details: ATCC6633, read-out: Minimum inhibitory concentration, BS
From the text: as §1, §3

[12] = tested on: Bacillus subtilis ATCC 6633; experiment: Agar well diffusion, B. subtilis; format: cell-based; details: ATCC6633, 100 μL of 10 mg/mL in DMSO, read-out: diameter of inhibition zone, BS
From the text: as §1, §2

[13] = tested on: Escherichia coli ATCC 2592; experiment: Agar well diffusion, E. coli; format: cell-based; details: ATCC2592, 100 μL of 10 mg/mL in DMSO, read-out: diameter of inhibition zone, EC
From the text: as §1, §2

[14] = tested on: Staphylococcus aureus ATCC 29213; experiment: MIC, two-fold serial dilution, S. aureus; format: cell-based; details: ATCC29213, read-out: Minimum inhibitory concentration, SA
From the text: as §1, §3

[15] = tested on: Saccharomyces cerevisiae local isolate; experiment: MIC, two-fold serial dilution, S. cerevisiae; format: cell-based; details: two-fold serial dilution, S. cerevisiae, read-out: Minimum inhibitory concentration, SC
From the text: as §1, §3

| Compound | zone of inhibition at 10000 µg/mL [1] [mm] | MIC [2] [µg/mL] | MIC [3] [µg/mL] | zone of inhibition at 10000 µg/mL [4] [mm] | IC50 [5] | MIC [6] [µg/mL] | % Inhibition (proteinase) (trypsin) [%] | MIC [7] [µg/mL] | zone of inhibition at 10000 µg/mL [8] [mm] | zone of inhibition at 10000 µg/mL [9] [mm] | zone of inhibition at 10000 µg/mL [10] [mm] | MIC [11] [µg/mL] | zone of inhibition at 10000 µg/mL [12] [mm] | zone of inhibition at 10000 µg/mL [13] [mm] | MIC [14] [µg/mL] | MIC [15] [µg/mL] | melting point [°C] |
| --- | --- | --- | --- | --- | --- | --- | --- | --- | --- | --- | --- | --- | --- | --- | --- | --- | --- |
| COc1ccc(/C=C/C(=O)c2ccc(NS(=O)(=O)c3c(O)c4cc(Cl)ccc4oc3=O)cc2)cc1 [9e, (E)-6-Chloro-4-hydroxy-N-(4-(3-(4-methoxyphenyl)acryloyl)phenyl)-2-oxo-2H-chromene-3-sulfonamide] | 29 | 500 (≈ 977 µM) | 500 (≈ 977 µM) | 23 | — ((—): inactive (IC50 > 200 μg/mL)) | 500 (≈ 977 µM) | 22.83 ± 4.88 | 500 (≈ 977 µM) | 23 | 20 | 21 | 500 (≈ 977 µM) | 21 | 21 | 500 (≈ 977 µM) | 250 (≈ 488 µM) | > 300 |
| Cc1ccc2oc(=O)c(S(=O)(=O)Nc3ccc(C(=O)/C=C/c4ccc([N+](=O)[O-])cc4)cc3)c(O)c2c1 [9b, (E)-4-Hydroxy-6-methyl-N-(4-(3-(4-nitrophenyl)acryloyl)phenyl)-2-oxo-2H-chromene-3-sulfonamide] | 25 | 500 (≈ 987 µM) | 500 (≈ 987 µM) | 23 | — ((—): inactive (IC50 > 200 μg/mL)) | 250 (≈ 494 µM) | – | 250 (≈ 494 µM) | 22 | 25 | 26 | 500 (≈ 987 µM) | 24 | 26 | 500 (≈ 987 µM) | 500 (≈ 987 µM) | 220 |
| O=C(/C=C/c1ccc([N+](=O)[O-])cc1)c1ccc(NS(=O)(=O)c2c(O)c3cc(Cl)ccc3oc2=O)cc1 [9a, (E)-6-Chloro-4-hydroxy-N-(4-(3-(4-nitrophenyl)acryloyl)phenyl)-2-oxo-2H-chromene-3-sulfonamide] | < 15 | – | 1000 (≈ 1900 µM) | < 15 | — ((—): inactive (IC50 > 200 μg/mL)) | – | 62.14 ± 4.87 | – | 16 | 18 | < 15 | 1000 (≈ 1900 µM) | 18 | < 15 | – | – | 205 to 207 |
| O=C(O)c1cn(C2CC2)c2cc(N3CCNCC3)c(F)cc2c1=O [Ciprofloxacin, reference compound] | < 15 | – | 125 (≈ 377 µM) | < 15 | – | 125 (≈ 377 µM) | – | 125 (≈ 377 µM) | 28 | 30 | 30 | 125 (≈ 377 µM) | 30 | 30 | 125 (≈ 377 µM) | – | – |
| COc1ccc(/C=C/C(=O)c2ccc(NS(=O)(=O)c3c(O)c4cc(C)ccc4oc3=O)cc2)cc1 [9f, (E)-4-Hydroxy-N-(4-(3-(4-methoxyphenyl)acryloyl)phenyl)-6-methyl-2-oxo-2H-chromene-3-sulfonamide] | 26 | 500 (≈ 1020 µM) | 250 (≈ 509 µM) | 24 | — ((—): inactive (IC50 > 200 μg/mL)) | 250 (≈ 509 µM) | 21.7 ± 7.6 | 250 (≈ 509 µM) | 25 | 26 | 28 | 500 (≈ 1020 µM) | 25 | 26 | 500 (≈ 1020 µM) | 500 (≈ 1020 µM) | > 300 |
